Measured values reported in patent EP4755880A1, “SUBSTITUTED NITROGEN-CONTAINING BICYCLIC COMPOUND AND USE THEREOF” (Sunshine Lake Pharma Co., Ltd., priority 2023, dated 2025).

Key:
PARP1 = PARP1 (Homo sapiens, UniProt P09874); test: Inhibition of PARP1 enzyme activity (ELISA, chemiluminescence); format: biochemical; conditions: for IC50: ELISA, histone-coated plate, NAD+, 60 min at 25 °C; for Selectivity PARP2/PARP1: ratio of PARP2 IC50 to PARP1 IC50
Protocol: (§1) Experimental Objective: To evaluate the inhibitory effect of the compounds of the present invention on the enzyme activities of PARP1 and PARP2 using ELISA.
(§2) • 1. histone-coated 384-well plates was prepared: 25 µL of histone solution was added to each well and incubated overnight at 4 °C. • 2. PBST buffer, blocking buffer (PBS buffer with 5% BSA and 0.05% Tween-20 added) and detection buffer (20 mM HEPES pH 7.5 + 100 mM NaCl + 2 mM DTT + 0.002% Tween-20 + 0.1% BSA) were prepared. • 3. The histone-coated 3 84-well plate was washed three times with PBST buffer, blocked at room temperature with 50 µL blocking buffer for 1 hour, and then washed three times with PBST buffer. • 4. Test compounds were prepared as 2000-fold stock solutions in DMSO. 50 nL of the stock solution was mixed with 19.95 µL detection buffer, and 5 µL of the gradient-diluted test compound was transferred to each well. • 5. Enzymatic reaction (PARP1): PARP1 & DNA mix was pre-incubated at 25 °C for 10 minutes. 10 µL of the PARP1 & DNA mix was added to each well and incubated with the test compound at room temperature for 10 minutes. […] Finally, the 384-well plate was washed three times with PBST buffer. Enzymatic reaction (PARP2): PARP2 was pre-incubated at 25 °C for 10 minutes. 10 µL of PARP2 was added to each well and incubated with the test compound at room temperature for 10 minutes. […] Finally, the 384-well plate was washed three times with PBST buffer. • 6. Detection (PARP1): 20 µL of anti-Poly/Mono-ADP Ribose Rabbit mAb was added and incubated at room temperature for 1.5 hours, followed by three washes of the 384-well plate with PBST buffer. Then, 20 µL of diluted anti-rabbit IgG, HRP-linked Antibody (diluted 1:2000 in blocking buffer) was added and incubated at room temperature for 1 hour. After washing the plate three times with PBST buffer, 25 µL of a 1:1 mixture of Femto-ECL Substrate A and Femto-ECL Substrate B was added. Detection (PARP2): 25 µL of Strep-HRP was added and incubated at room temperature for 1 hour, followed by three washes of the 384-well plate with PBS buffer. Then, 25 µL of a 1:1 mixture of Femto-ECL Substrate A and Femto-ECL Substrate B was added. • 7. Chemiluminescence intensity was measured using an Envision multimode microplate reader. • 8. Data Processing
(§3) The inhibition rate was calculated in Excel using formula (1). inh% = (Max−Signal)/(Max−Min)*100 [formula]
(§4) The IC50 value was obtained by fitting the data in XL-Fit using formula (2). Y = bottom + (top−bottom)/(1+(IC50/X)*HillSlope); [formula] wherein Y is the inhibition percentage and X is the compound concentration.

MDA-MB-436 cells = test: Inhibition of proliferation of MDA-MB-436 cells (CellTiter-Glo); format: cell-based; conditions: Homo sapiens, MDA-MB-436, 168 h, 7 days incubation
Protocol: • 1. Cell Pretreatment: MDA-MB-436 cells were cultured in DMEM + 10% FBS + 1% penicillin-dip antibiotics + 1% ITS + 16 µg/ml glutathione. Cells in the logarithmic growth phase were digested with trypsin-EDTA, centrifuged and resuspended, and then seeded at a rate of 500-1000 cells/well in sterile 96-well opaque plates, 90 µl per well. After seeding, the cell culture plates were incubated overnight at 37°C with 5% CO2 before drug treatment. • 2. Drug treatment of MDA-MB-436 cells: The test compound was prepared as a 10 mM stock solution using DMSO. The drug was then diluted to a 10× working solution using growth medium (the compound was started at 100 µM and diluted 4-fold to achieve 9 concentrations). 10 µl of the 10× working solution was added to each well to achieve final drug concentrations of 10000, 2500, 625, 156, 39, 9.7, 2.4, 0.61, and 0.152 nM, respectively. Blank control wells containing the same DMSO concentration were also included, with three replicates for each concentration. After drug addition, the cells were incubated at 37°C with 5% CO2 for 7 days. • 3. After incubation, 100 µl of CellTiter-Glo® Reagent was added to each well, and luminescence was measured. The IC50 value of cell proliferation inhibition was calculated using GraphPad software to fit the curve. Table E: Results of the inhibitory effect of the compound of this invention on the proliferation of MDA-MB-436 cells.

[1] = Pharmacokinetics in mice after intravenous injection or gavage; conditions: BALB/c, mouse, plasma
Protocol: (§5) The compounds of the present invention were administered to test animals in the form of 5% DMSO + 30% PEG400 + 65% physiological saline, 10% DMSO + 10% Kolliphor HS15 + 80% Saline, 10% DMSO + 89% (25% SBE-B-CD) + (2% HCl), 20% PEG400 + 80% sterile water for injection, or 10% DMA+ 10% HS15 + 30% PEG400 + 50% sterile aqueous solution for injection. Animals were fasted for 12 hours before administration but had free access to water. For the intravenous administration group, the dose was 1 mg/kg. Blood samples (approximately 0.15 mL) were collected intravenously at the following time points after administration: 0.083, 0.25, 0.5, 1.0, 2.0, 4.0, 6.0, 8.0 and 24 h (dogs) or 0.083, 0.25, 0.5, 1.0, 2.0, 5.0, 7.0 and 24 h (mice and rats) or 0.083, 0.25, 0.5, 1.0, 2.0, 6.0, 8.0 and 24 h (monkeys). EDTA-K2 was pre-added to the blood collection tube as an anticoagulant. The blood samples were centrifuged at 12,000 rpm for 2 minutes, and plasma was collected and stored at -20 °C or - 70 °C. For the gavage administration group, the dosage was 1 mg/kg (mice, dogs, and monkeys) or 5 mg/kg (rats). After administration, venous blood samples (approximately 0.15 mL) were collected at the following time points: 0.25, 0.5, 1.0, 2.0, 4.0, 6.0, 8.0, and 24 h (dogs) or 0.25, 0.5, 1.0, 2.0, 5.0, 7.0, and 24 h (mice and rats) or 0.25, 0.5, 1.0, 2.0, 6.0, 8.0, and 24 h (monkeys). EDTA-K2 was pre-added to the blood collection tube as an anticoagulant. The blood samples were centrifuged at 12,000 rpm for 2 minutes, and plasma was collected and stored at -20 °C or -70 °C.
(§6) The collected plasma samples were processed (frozen plasma was thawed at room temperature, vortexed for 15 s to mix, 10-20 µL of plasma was taken, 120-150 µL of acetonitrile solution containing internal standard was added, vortexed for 5 min to mix, centrifuged at 4,000 rpm for 5 min, 100 µL of supernatant was taken, and 120-150 Ml/water (v/v = 1/1) was added and mixed). The concentration of compounds in the plasma was then analyzed by LC-MS/MS.

PARP2 = PARP2 (Homo sapiens, UniProt Q9UGN5); test: biochemical;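 note: PARP2 enzyme ELISA on histone-coated plates, Strep-HRP detection with chemiluminescence read-out, 10 min compound preincubation with enzyme, inhibition scaled between Max and Min signal controls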
Protocol: as §1, §2, §3, §4

[2] = Pharmacokinetics in SD rats after intravenous injection or gavage; conditions: rat, plasma
Protocol: as §5, §6
Table D Pharmacokinetic parameters of compounds of the present invention in SD rats

DLD-1 BRCA2(-/-) cells = test: Inhibition of proliferation of DLD-1 BRCA2(-/-) cells (CTG method); format: cell-based; conditions: Homo sapiens, DLD-1, 168 h; 7 days incubation, CellTiter-Glo
In short: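 DLD-1 BRCA2(-/-) cells, 1,000 per well, attached overnight, then exposed to compound at final 10000 to 0.152 nM (4-fold series) in triplicate for 7 days at 37 °C, 5% CO2. Viability by CellTiter-Glo luminescence; IC50 for proliferation inhibition from a fitted curve.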

Sequence of PARP2 (Q9UGN5 whole entry): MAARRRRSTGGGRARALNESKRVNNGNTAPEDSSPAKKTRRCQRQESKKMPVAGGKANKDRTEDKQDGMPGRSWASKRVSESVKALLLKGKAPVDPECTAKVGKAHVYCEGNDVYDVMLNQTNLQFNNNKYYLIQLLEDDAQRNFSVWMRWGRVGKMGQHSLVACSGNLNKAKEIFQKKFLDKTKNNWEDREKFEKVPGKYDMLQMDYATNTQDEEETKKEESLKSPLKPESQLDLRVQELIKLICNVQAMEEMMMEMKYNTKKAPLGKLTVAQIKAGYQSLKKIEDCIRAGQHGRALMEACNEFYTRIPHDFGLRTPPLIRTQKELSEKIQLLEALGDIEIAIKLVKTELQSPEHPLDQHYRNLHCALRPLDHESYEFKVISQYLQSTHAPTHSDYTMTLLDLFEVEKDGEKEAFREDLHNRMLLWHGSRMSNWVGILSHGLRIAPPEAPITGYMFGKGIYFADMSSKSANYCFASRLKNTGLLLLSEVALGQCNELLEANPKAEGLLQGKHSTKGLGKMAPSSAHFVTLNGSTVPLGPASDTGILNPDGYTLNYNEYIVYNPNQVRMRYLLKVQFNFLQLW
Sequence of PARP1 (P09874 whole entry): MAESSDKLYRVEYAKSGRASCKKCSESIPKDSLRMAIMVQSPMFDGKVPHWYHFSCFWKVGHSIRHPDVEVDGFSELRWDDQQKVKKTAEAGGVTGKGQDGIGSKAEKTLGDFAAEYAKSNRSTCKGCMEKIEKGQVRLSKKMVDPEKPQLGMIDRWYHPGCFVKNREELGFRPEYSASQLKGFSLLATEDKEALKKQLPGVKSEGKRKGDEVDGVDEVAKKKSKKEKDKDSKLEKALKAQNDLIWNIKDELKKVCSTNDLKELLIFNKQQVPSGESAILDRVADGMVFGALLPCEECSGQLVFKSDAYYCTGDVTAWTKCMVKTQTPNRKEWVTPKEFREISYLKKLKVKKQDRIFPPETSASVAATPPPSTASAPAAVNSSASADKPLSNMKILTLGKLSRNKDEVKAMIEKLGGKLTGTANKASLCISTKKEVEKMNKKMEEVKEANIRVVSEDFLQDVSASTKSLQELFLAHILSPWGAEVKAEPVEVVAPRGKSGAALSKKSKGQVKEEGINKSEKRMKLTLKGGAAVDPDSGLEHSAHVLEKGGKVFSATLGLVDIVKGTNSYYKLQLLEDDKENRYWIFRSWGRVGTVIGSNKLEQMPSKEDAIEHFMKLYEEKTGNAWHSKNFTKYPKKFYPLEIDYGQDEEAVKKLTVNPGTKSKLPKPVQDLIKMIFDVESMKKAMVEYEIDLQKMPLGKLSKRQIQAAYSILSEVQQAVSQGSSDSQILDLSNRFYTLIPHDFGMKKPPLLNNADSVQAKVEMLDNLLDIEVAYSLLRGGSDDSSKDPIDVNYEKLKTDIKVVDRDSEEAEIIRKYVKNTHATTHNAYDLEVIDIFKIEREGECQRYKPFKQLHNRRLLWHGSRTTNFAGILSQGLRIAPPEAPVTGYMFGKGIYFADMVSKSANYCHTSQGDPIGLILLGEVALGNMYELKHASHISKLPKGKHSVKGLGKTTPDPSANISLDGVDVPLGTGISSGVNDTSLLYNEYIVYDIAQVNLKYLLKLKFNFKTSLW

| IC50 (PARP1) | Selectivity PARP2/PARP1 (PARP1) | IC50 (MDA-MB-436 cells) | AUC(0-t) ([1]; iv, 2 mg/kg) | Cmax ([1]; iv, 2 mg/kg) | half-life ([1]; iv, 2 mg/kg) | AUC(0-t) ([1]; po, 5 mg/kg) | Cmax ([1]; po, 5 mg/kg) | half-life ([1]; po, 5 mg/kg) | IC50 (PARP2) | AUC(0-t) ([2]; iv, 1 mg/kg) | Cmax ([2]; iv, 1 mg/kg) | half-life ([2]; iv, 1 mg/kg) | AUC(0-t) ([2]; po, 5 mg/kg) | Cmax ([2]; po, 5 mg/kg) | half-life ([2]; po, 5 mg/kg) | IC50 (DLD-1 BRCA2(-/-) cells) | Structure (SMILES) |
| --- | --- | --- | --- | --- | --- | --- | --- | --- | --- | --- | --- | --- | --- | --- | --- | --- | --- |
| 1.5 nM | 2084.7 | 20.2 nM | 2870 ng·h/mL | 942 ng/mL | 3.1 h | 8560 ng·h/mL | 1450 ng/mL | 3.9 h | 3130 nM | 1090 ng·h/mL | 534 ng/mL | 2.1 h | 5610 ng·h/mL | 719 ng/mL | 3.4 h | 22.9 nM | CNC(=O)c1ccc(N2CCN(Cc3cc(-c4ccccc4)c4nc(C)c(=O)[nH]c4c3)CC2)c(F)n1 [Example 2, 6-fluoro-N-methyl-5-(4-((2-methyl-3-oxo-8-phenyl-3,4-dihydroquinoxalin-6-yl)methyl)piperazin-1-yl)picolinamide] |
| 2 nM | 44.3 | 0.2 nM | 2750 ng·h/mL | 3750 ng/mL | 1.2 h | 4860 ng·h/mL | 2760 ng/mL | 1.5 h | 90.2 nM | 5680 ng·h/mL | 2230 ng/mL | 2.4 h | 48300 ng·h/mL | 4970 ng/mL | 2.8 h | 13 nM | CC#Cc1cc(CN2CCN(c3ccc(C(=O)NC4CC4)nc3F)CC2)cc2[nH]c(=O)c(C)nc12 [Example 35, N-cyclopropyl-6-fluoro-5-(4-((2-methyl-3-oxo-8-(prop-1-yn-1-yl)-3,4-dihydroquinoxalin-6-yl)methyl)piperazin-1-yl)picolinamide] |
| 3.1 nM | 3254.4 | 11.8 nM | 2230 ng·h/mL | 3150 ng/mL | 1.3 h | 4630 ng·h/mL | 2720 ng/mL | 1.9 h | > 10000 nM | 1670 ng·h/mL | 1720 ng/mL | 2.1 h | 7870 ng·h/mL | 3130 ng/mL | 2.8 h | 37.4 nM | CC#Cc1cc(CN2CC=C(c3ccc(C(=O)NC4CC4)nc3F)CC2)c(F)c2[nH]c(=O)c(C)nc12 [Example 41, N-cyclopropyl-2-fluoro-1'-((5-fluoro-2-methyl-3-oxo-8-(prop-1-yn-1-yl)-3,4-dihydroquinoxalin-6-yl)methyl)-1',2',3',6'-tetrahydro-[3,4'-bipyridine]-6-carboxamide] |
| 2.5 nM | 25.0 | 0.2 nM | 11300 ng·h/mL | 6460 ng/mL | 1.6 h | 25300 ng·h/mL | 8750 ng/mL | 2 h | 64 nM | 4500 ng·h/mL | 1410 ng/mL | 3.2 h | 21200 ng·h/mL | 2150 ng/mL | 3.4 h | 3.2 nM | Cc1nc2c(OC(F)F)cc(CN3CCN(c4ccc(C(=O)NC5CC5)nc4F)CC3)cc2[nH]c1=O [Example 46, N-cyclopropyl-5-(4-((8-(ditluoromethoxy)-2-methyl-3-oxo-3,4-dihydroquinoxalin-6-yl)methyl)piperazin-1-yl)-6-fluoropicolinamide] |

Further lines, the molecule ahead of its results:

| Structure (SMILES) | IC50 (PARP1) | Selectivity PARP2/PARP1 (PARP1) | IC50 (MDA-MB-436 cells) | AUC(0-t) ([1]; iv, 2 mg/kg) | Cmax ([1]; iv, 2 mg/kg) | half-life ([1]; iv, 2 mg/kg) | AUC(0-t) ([1]; po, 5 mg/kg) | Cmax ([1]; po, 5 mg/kg) | half-life ([1]; po, 5 mg/kg) | IC50 (PARP2) | AUC(0-t) ([2]; iv, 1 mg/kg) | Cmax ([2]; iv, 1 mg/kg) | half-life ([2]; iv, 1 mg/kg) | AUC(0-t) ([2]; po, 5 mg/kg) | Cmax ([2]; po, 5 mg/kg) | half-life ([2]; po, 5 mg/kg) | IC50 (DLD-1 BRCA2(-/-) cells) |
| --- | --- | --- | --- | --- | --- | --- | --- | --- | --- | --- | --- | --- | --- | --- | --- | --- | --- |
| CNC(=O)c1ccc(N2CCN(Cc3cc(OC(C)C)c4nc(C)c(=O)[nH]c4c3)CC2)c(F)n1 [Example 3, 6-fluoro-5-(4-((8-isopropoxy-2-methyl-3-oxo-3,4-dihydroquinoxalin-6-yl)methyl)piperazin-1-yl)-N-methylpicolinamide] | 2.67 nM | 53.2 | 7.5 nM | 2140 ng·h/mL | 1220 ng/mL | 1.9 h | 4890 ng·h/mL | 1780 ng/mL | 2.4 h | 142 nM | 1990 ng·h/mL | 653 ng/mL | 3.4 h | 13100 ng·h/mL | 1400 ng/mL | 3.7 h | 4.6 nM |
| CC#Cc1cc(CN2CCN(c3ccc(C(=O)NC)nc3F)CC2)cc2[nH]c(=O)c(C)nc12 [Example 7, 6-fluoro-N-methyl-5-(4-((2-methyl-3-oxo-8-(prop-1-yn-1-yl)-3,4-dihydroquinoxalin-6-yl)methyl)piperazin-1-yl)picolinamide] | 1.3 nM | 362.1 | 10.7 nM | 2140 ng·h/mL | 1300 ng/mL | 1.6 h | 6370 ng·h/mL | 3230 ng/mL | 1.8 h | 472 nM | 3370 ng·h/mL | 1170 ng/mL | 3.4 h | 22400 ng·h/mL | 2600 ng/mL | 3.3 h | 2.5 nM |
| CNC(=O)c1ccc(N2CCN(Cc3cc(OC(F)F)c4nc(C)c(=O)[nH]c4c3)CC2)c(F)n1 [Example 13, 5-(4-((8-(difluoromethoxy)-2-methyl-3-oxo-3,4-dihydroquinoxalin-6-yl)methyl)piperazin-1-yl)-6-fluoro-N-methylpicolinamide] | 0.713 nM | 256.6 | 3.5 nM | 17000 ng·h/mL | 6560 ng/mL | 1.9 h | 33900 ng·h/mL | 11500 ng/mL | 2.9 h | 183 nM | 7720 ng·h/mL | 2730 ng/mL | 3.2 h | 57900 ng·h/mL | 5810 ng/mL | 4.4 h | 1.3 nM |
| CNC(=O)c1ccc(C2=CCN(Cc3cc(OC(F)F)c4nc(C)c(=O)[nH]c4c3)CC2)c(F)n1 [Example 15, 1'-((8-(difluoromethoxy)-2-methyl-3-oxo-3,4-dihydroquinoxalin-6-yl)methyl)-2-fluoro-N-methyl-1',2',3',6'-tetrahydro-[3,4'-bipyridine]-6-carboxamide] | 0.6 nM | 248.4 | 1.3 nM | 75300 ng·h/mL | 13600 ng/mL | 3.8 h | 189000 ng·h/mL | 19000 ng/mL | 4.2 h | 137 nM | 6060 ng·h/mL | 1560 ng/mL | 4.1 h | 31600 ng·h/mL | 3630 ng/mL | 4.5 h | 4.1 nM |
| Cc1nc2c(OC(F)F)cc(CN3CC=C(c4ccc(C(=O)NC5CC5)nc4F)CC3)cc2[nH]c1=O [Example 42, N-cyclopropyl-1'-((8-(difluoromethoxy)-2-methyl-3-oxo-3,4-dihydroquinoxalin-6-yl)methyl)-2-fluoro-1',2',3',6'-tetrahydro-[3,4'-bipyridine]-6-carboxamide] | 0.9 nM | 239.7 | 0.3 nM | 18100 ng·h/mL | 8180 ng/mL | 2.5 h | 61500 ng·h/mL | 15100 ng/mL | 2.5 h | 221 nM | – | – | – | – | – | – | 7 nM |
| CNC(=O)c1ccc(N2CCN(Cc3cc(OC(F)F)c4nc(C)c(=O)[nH]c4c3)CC2)c(C)n1 [Example 52, 5-(4-((8-(difluoromethoxy)-2-methyl-3-oxo-3,4-dihydroquinoxalin-6-yl)methyl)piperazin-1-yl)-N,6-dimethylpicolinamide] | – | – | 1.4 nM | 17800 ng·h/mL | 7220 ng/mL | 2.5 h | 67100 ng·h/mL | 10700 ng/mL | 2.8 h | – | 3520 ng·h/mL | 1190 ng/mL | 3.5 h | 31100 ng·h/mL | 2580 ng/mL | 3.8 h | 2.2 nM |
| CNC(=O)c1ccc(N2CCN(Cc3cc(OC4CCCCC4)c4nc(C)c(=O)[nH]c4c3)CC2)c(F)n1 [Example 72, 5-(4-((8-(cyclohexyloxy)-2-methyl-3-oxo-3,4-dihydroquinoxalin-6-yl)methyl)piperazin-1-yl)-6-fluoro-N-methylpyridine amide] | 1.3 nM | 756.9 | 12 nM | – | – | – | – | – | – | 992 nM | – | – | – | – | – | – | 9.1 nM |
